According to US5236929A, “Compound UCA1064-B” (Kyowa Hakko Kogyo Co., Ltd., priority 1991, dated 1993):
Converted amounts (≈) assume the structure as drawn.

What was measured:
[1] = tested on: Mouse mammary cancer SC-4; experiment: Anti-tumor activity against mouse mammary cancer SC-4 in BALB/c nu/nu nude mice; assay type: in vivo; details: once a day, five days after start
Protocol: Mouse mammary cancer SC-4 (8 mm^3) was subcutaneously implanted into BALB/c nu/nu nude mice (5-weeks-old, male) at ventral side using a trockar.
After the volume of the tumor reached 100-300 mm^3, UCA1064-B was subcutaneously administered near the tumor at a dose of 15 mg/kg once a day for 4 days. UCA1064-B was administered in the form of a suspension, which was prepared by triturating 10 mg of UCA1064-B with 20 μl of Tween 80 and then suspending the compound in 0.3% carboxymethyl cellulose (CMC).
For comparison, 100 mg/kg of cortisone was subcutaneously administered once a day for 5 days in a similar manner.
Five days after the start of administration, the anti-tumor activity was determined as T/C (T: the volume of the tumor of the test group, C: the volume of the tumor of the control group).

[2] = tested on: Bacillus subtilis No. 10707; experiment: Antibacterial and antifungal activity, agar dilution method; assay type: cell-based; details: pH 7, read-out: Minimum Inhibitory Concentration (MIC)
Protocol: (§1) The minimum inhibitory concentration (MIC) of UCA1064-B against various bacteria and fungi was determined by the agar dilution method using a medium (pH 7) prepared by dissolving 3 g of Bacto-Tryptone (Difco Laboratories), 3 g of meat extract, 1 g of yeast extract, 1 g of glucose and 16 g of agar in 1 liter of water.

Candida krusei MTU12041 = experiment: as above; assay type: cell-based; details: Pichia kudriavzevii, pH 7, read-out: Minimum Inhibitory Concentration (MIC)
Protocol: as §1

[3] = tested on: Enterococcus faecium ATCC10541; experiment: as above; assay type: cell-based; details: pH 7, read-out: Minimum Inhibitory Concentration (MIC)
Protocol: as §1

[4] = tested on: Klebsiella pneumoniae ATCC10031; experiment: as above; assay type: cell-based; details: pH 7, read-out: Minimum Inhibitory Concentration (MIC)
Protocol: as §1

[5] = tested on: Saccharomyces cerevisiae MTU09001; experiment: as above; assay type: cell-based; details: pH 7, read-out: Minimum Inhibitory Concentration (MIC)
Protocol: as §1

[6] = tested on: Salmonella typhi ATCC9992; experiment: as above; assay type: cell-based; details: Salmonella enterica, pH 7, read-out: Minimum Inhibitory Concentration (MIC)
Protocol: as §1

[7] = tested on: Staphylococcus aureus ATCC6538P; experiment: as above; assay type: cell-based; details: pH 7, read-out: Minimum Inhibitory Concentration (MIC)
Protocol: as §1

BALB 3T3/H-ras cells = experiment: Growth inhibition against BALB 3T3 cells transformed by the oncogene H-ras (Giemsa staining); assay type: cell-based
Protocol: (B) Growth Inhibition Against BALB 3T3 Cells Transformed by the Oncogene H-Ras (Hereinafter Referred to as BALB 3T3/H-Ras Cells)
A BALB 3T3/H-ras cell suspension (3×10^4 cells/ml) prepared by suspending BALB 3T3/H-ras cells in a medium comprising DME medium (Nissui Pharmaceutical Co, Ltd.) and 10% fetal calf serum (hereinafter referred to as Medium A) was put into wells of a 96-well microtiter plate in an amount of 0.1 ml per well. After the plate was incubated at 37° C. for 20 hours in a CO2 -incubator, 0.1 ml of a sample of UCA1064-B appropriately diluted with Medium A was added to each well. The cells were further incubated at 37° C. for 72 hours in the CO2 -incubator. After the culture supernatant was removed, the residue was washed once with physiological saline and then treated with 0.1 ml of methanol for 10 minutes to fix the cells. […] After the staining solution was removed, the residue was washed once with 0.2 ml of water. Then, the dye was extracted with 0.2 ml of 0.1N hydrochloric acid and absorbance was measured at 620 nm with a microplate reader.

Solubility = assay type: physicochemical

| Compound | T/C (tumor volume of test group / control group) ([1]; 100 mg/kg × 5, subcutaneous, **P < 0.05 (Mann-Whitney U test)) | MIC [2] [µg/mL] | MIC (Candida krusei MTU12041) [µg/mL] | MIC [3] [µg/mL] | MIC [4] [µg/mL] | MIC [5] [µg/mL] | MIC [6] [µg/mL] | MIC [7] [µg/mL] | IC50 (BALB 3T3/H-ras cells; Mus musculus, BALB/3T3, 72 hours, 37° C.) [µg/mL] | growth of cancer cells (conclusion in words) (BALB 3T3/H-ras cells; summary of the results shown (Tables 2 and 3)) | T/C (tumor volume of test group / control group) ([1]; 15 mg/kg × 4, subcutaneous near the tumor, *P < 0.01 (Mann-Whitney U test)) | Solubility (Solubility; alcohol, acetone, ethyl acetate and chloroform) | Solubility (Solubility; water and hexane) |
| --- | --- | --- | --- | --- | --- | --- | --- | --- | --- | --- | --- | --- | --- |
| C[C@]12CCC(=O)C=C1CC[C@@H]1[C@@H]2C(=O)C[C@@]2(C)[C@H]1CC[C@]2(O)C(=O)CO [Cortisone, reference compound] | 0.39 | – | – | – | – | – | – | – | – | – | – | – | – |
| CC(C)C(C)CCC(C)C1CCN=C2C3=C(CCC21C)C1(C)CCC(O)CC1CC3 (stereo not shown) [UCA1064-B] | – | 20 (≈ 48.3 µM) | 0.78 (≈ 1.89 µM) | 40 (≈ 96.7 µM) | > 100 | 0.39 (≈ 0.943 µM) | > 100 | 20 (≈ 48.3 µM) | 3.5 (≈ 8.46 µM) | inhibits the growth of cancer cells | 0.49 | soluble in alcohol, acetone, ethyl acetate and chloroform | insoluble in water and hexane |
